Data: publication PMC5845537 (Frontiers in Pharmacology, 2018)
pKi: −log10 of the molar value. Like-named read-outs stand apart in the source and are kept apart here. Marks after values point to notes of the source that are not given here.

Assays:
sigma 1 receptors = biological target: sigma 1 receptors; design: method as in Sanchez et al., 2003; details: ref Sanchez et al., 2003; cited from earlier work
Long-Evans rats [1] = assay: Attentional set-shifting task (AST) in subchronic PCP-treated rats; assay type: in vivo, rat; details: for trials to criterion vs vehicle/vehicle or PCP/vehicle, EDR discrimination / trials to criterion vs PCP/vehicle, ED discrimination: subPCP-treated rats
Procedure: Subchronic PCP treatment: The subPCP administration regimen used in rats was conducted as described in ([Goetghebeur and Dias, 2009]), which is a reliable method for inducing deficits in our hands. Rats in the subPCP experiments received injections of 5 mg/mL PCP or vehicle (saline) s.c. at a 1 mL/kg injection volume twice per day for 7 days. […] The mouse subPCP regimen was conducted as described in [Pedersen et al. (2014)]. Briefly, mice received vehicle or PCP (1.3 mg/mL concentration, 10 mL/kg injection volume) s.c once per day for 14 days followed by a 7-day washout prior to experimentation.
Each test used male Long-Evans rats (Charles River, United States) aged 5–6 weeks when arriving at the research facility.
The attentional set-shifting test (AST) methods used here were adapted from [Goetghebeur and Dias (2009)]. The apparatus used for the AST test was a 44 cm × 64 cm × 30 cm black non-transparent Perspex test box, divided into 3 equal-sized areas (a starting area separated from a choice area subdivided in two). In the choice area, two 11 cm diameter terracotta pots were placed recessed into the box floor (with a 2 cm lip remaining above the floor) and separated by a divider. Odor (oils from The Body Shop®, United Kingdom) and media cues (not previously presented to the rats) were added to the pots.
Beginning on day 3 after the cessation of PCP administration, rats were subjected to a habituation period and trained to dig for a diet reward (half a Honey Loop cereal, Nestlé®) in terracotta pots filled with sawdust. On day 7 of PCP washout, rats were subjected to a single training session in which they were required to discriminate between two pots in order to find the reward. These discriminations were either based on differences in the digging media or the pot’s odor. On day 8 rats were presented with a series of increasingly difficult discriminations: a simple discrimination (SD), a compound discrimination (CD), two intra-dimensional shifts (ID1, ID2), an intra-dimensional shift reversal (ID2R), an extra-dimensional shift (ED) and an extra-dimensional shift reversal (EDR; see Table 1). Rats were required to meet a training criterion before moving on to a new discrimination type (for specifics, see Statistical Analysis, below).
The first trial of each discrimination stage was a discovery trial in which rats were allowed to dig in both pots, and to self-correct if digging in the wrong pot. Rats were only given one discovery trial. The discovery trial was included in the trials to criterion if the rat dug first in the correct pot, but not if the rat self-corrected an incorrect initial dig.
In the acute vortioxetine study, prior to the start of behavioral experiments on Day 8 of washout from PCP treatment, animals were randomly administered either 20% CD (Veh), […], or 64 mg/kg modafinil 30 min p.o. as described above (included as a positive control). Thus, the treatment groups in the acute vortioxetine study were as follows: Veh/Veh, PCP/Veh, PCP/1 mg/kg vortioxetine, PCP/3 mg/kg vortioxetine, PCP/10 mg/kg vortioxetine, or PCP/64 mg/kg modafinil.
Food dosing lasted from the first day of sub-chronic PCP administration and until the last day of the washout period (total of 14 days). After the end of the washout period where behavioral testing started, rats were fed with the same conditioned diet, however, under food restriction (∼11 g of diet per day per rat). In addition, some PCP-treated animals were fed vehicle food, but received acute injections of either 10 mg/kg vortioxetine, or 64 mg/kg modafinil, as described above. The treatment groups for the subchronic vortioxetine administration study were as follows: Veh/Veh, PCP/Veh, PCP/0.22 g/kg vortioxetine food, PCP/1.8 g/kg vortioxetine food, PCP/10 mg/kg vortioxetine 1 h s.c., or PCP/64 mg/kg 30 min p.o.
A third experiment was conducted to examine the effects of acute SERT inhibition or 5-HT3 receptor antagonism on subPCP-induced AST impairments. […]

mice = test system: mice; design: method as in Hashimoto et al. (2007); details: ref Hashimoto et al. (2007), cited from earlier work; for effect on deficits in OR performance: repeated administration
SERT = details: ref Pehrson et al., 2015; cited from earlier work
GABAA receptor [2] = assay: Ex vivo autoradiography, GABAA receptor saturation binding ([3H]muscimol), medial prefrontal cortex; design: species or system rat; details: rat medial prefrontal cortex
Excerpt: (§1) Rats used in ex vivo autoradiography (EVA) experiments were randomly assigned to one of four experimental groups characterized by either subchronic saline or PCP (as described above) along with either vehicle or vortioxetine-infused food (1.8 g vortioxetine/kg food weight, as described in the attentional set shifting task). On day 8 of PCP withdrawal, rats were anesthetized using CO2 and killed by decapitation. Brains were quickly and gently removed from the skull, flash frozen on powdered dry ice, and stored at -20°C until sectioning. Later, 12 μm coronal sections were collected from an area ranging from approximately +4.2 mm to +2.3 mm anterior to Bregma ([Paxinos and Watson, 1998]) using a cryostat (MicroM, Germany) and were thaw-mounted on glass microscope slides. This range of coronal slices was chosen in order to study the prelimbic and infralimbic subregions of the medial prefrontal cortex, given the importance of these regions in tests of executive function such as the attentional set shifting task ([Ng et al., 2007]). After the tissue mounted on the microscope slides had dried thoroughly (in order to reduce damage from freezing), slides were packed into slide boxes with desiccator pellets, and stored at -20°C for use in EVA saturation binding and competition experiments.
(§2) Each of the EVA procedures used in this study are variations on a similar theme. On the day of an experiment, slide-boxes were defrosted under a constant stream of air at room temperature until the boxes were dry and equilibrated with the environment in terms of temperature. This step was undertaken in order to ensure brain tissue was not damaged by frosting due to a sudden change in humidity. Prior to any binding experiments, slides were preincubated in the appropriate preincubation buffer and dried at room temperature. Subsequently, tissue was incubated in an assay buffer containing a radioligand appropriate for the receptor of interest, then rinsed in assay buffer, and dried overnight in a vacuum desiccator. Specific information on the contents of the preincubation buffers, assay buffers and other assay conditions are listed in Table 2. Finally, slides were opposed to a tritium-sensitive phosphor screen (Fuji imaging plate, GE Healthcare, Pittsburgh, PA, United States) for 5 days before being read in a phosphorimager (Typhoon FLA7000, GE Healthcare). Analysis methods are listed below under statistical analyses.
(§3) In saturation binding experiments, the concentration of the relevant radioligand in the assay buffer was systematically varied in order to determine the KD and Bmax of the receptor in question. At each radioligand concentration, the non-specific binding was determined on a separate slide by including a high concentration of a non-radioactive competitor ligand in the assay buffer along with the radioligand. For GABAA receptor saturation binding experiments, [^3H]muscimol was examined in quarter log steps ranging from 0.56 to 300 nM. For GABAB receptor saturation binding experiments, [^3H]CGP54626 was examined in quarter log steps ranging from 0.17 to 100 nM.
For saturation binding studies, the primary dependent measures were pKD and Bmax. […] A linear regression was performed to determine the relationship between intensity and bound radioactivity (measured on the standards in units of μCi/g). […] These optical intensity values were transformed into bound radioactivity (expressed as nCi/mg) measurements by interpolation from the standard curve noted above. […]

Long-Evans rats [3] = test system: Long-Evans rats; design: method as in Redrobe et al., 2012; details: same subPCP model; ref Redrobe et al., 2012; cited from earlier work
GABAA receptor [4] = test system: GABAA receptor; design: method as in Kim et al., 2000; details: i.c.v. infusion 1 pmol/10 μL/h for 7 days; cortex and CA3 sub-region of the hippocampus; ref Kim et al., 2000; cited from earlier work
GABAB receptor = biological target: T1, GABAB receptor (Rattus norvegicus, UniProt Q9Z0U4); assay: Ex vivo autoradiography, GABAB receptor saturation binding ([3H]CGP54626), medial prefrontal cortex; details: rat medial prefrontal cortex; for GABAB receptors Bmax: [3H]CGP54626
T1 construct: 12 μm coronal sections were collected from an area ranging from approximately +4.2 mm to +2.3 mm anterior to Bregma; from tissue; host or cells: rat brain cryosections, medial prefrontal cortex (prelimbic and infralimbic)
Excerpt: as §1, §2, §3
For saturation binding studies, the primary dependent measures were pKD and Bmax. First, a standard curve was generated by measuring optical intensity from a slide of tritium standards (American Radiolabeled Chemicals, St. Louis, MO, United States) included in the slide cassette during exposure. A linear regression was performed to determine the relationship between intensity and bound radioactivity (measured on the standards in units of μCi/g). Next, average intensity values from the non-specific bound condition for each concentration of radioligand was subtracted from intensity values from the total bound condition to produce a measure of specific binding for each radioligand concentration. These optical intensity values were transformed into bound radioactivity (expressed as nCi/mg) measurements by interpolation from the standard curve noted above. […]

[5] = acute vortioxetine study, 64 mg/kg 30 min p.o., vs PCP/Veh
[6] = subchronic vortioxetine study, acute 64 mg/kg, p < 0.001

T1 sequence (Q9Z0U4 17-960 limits assumed): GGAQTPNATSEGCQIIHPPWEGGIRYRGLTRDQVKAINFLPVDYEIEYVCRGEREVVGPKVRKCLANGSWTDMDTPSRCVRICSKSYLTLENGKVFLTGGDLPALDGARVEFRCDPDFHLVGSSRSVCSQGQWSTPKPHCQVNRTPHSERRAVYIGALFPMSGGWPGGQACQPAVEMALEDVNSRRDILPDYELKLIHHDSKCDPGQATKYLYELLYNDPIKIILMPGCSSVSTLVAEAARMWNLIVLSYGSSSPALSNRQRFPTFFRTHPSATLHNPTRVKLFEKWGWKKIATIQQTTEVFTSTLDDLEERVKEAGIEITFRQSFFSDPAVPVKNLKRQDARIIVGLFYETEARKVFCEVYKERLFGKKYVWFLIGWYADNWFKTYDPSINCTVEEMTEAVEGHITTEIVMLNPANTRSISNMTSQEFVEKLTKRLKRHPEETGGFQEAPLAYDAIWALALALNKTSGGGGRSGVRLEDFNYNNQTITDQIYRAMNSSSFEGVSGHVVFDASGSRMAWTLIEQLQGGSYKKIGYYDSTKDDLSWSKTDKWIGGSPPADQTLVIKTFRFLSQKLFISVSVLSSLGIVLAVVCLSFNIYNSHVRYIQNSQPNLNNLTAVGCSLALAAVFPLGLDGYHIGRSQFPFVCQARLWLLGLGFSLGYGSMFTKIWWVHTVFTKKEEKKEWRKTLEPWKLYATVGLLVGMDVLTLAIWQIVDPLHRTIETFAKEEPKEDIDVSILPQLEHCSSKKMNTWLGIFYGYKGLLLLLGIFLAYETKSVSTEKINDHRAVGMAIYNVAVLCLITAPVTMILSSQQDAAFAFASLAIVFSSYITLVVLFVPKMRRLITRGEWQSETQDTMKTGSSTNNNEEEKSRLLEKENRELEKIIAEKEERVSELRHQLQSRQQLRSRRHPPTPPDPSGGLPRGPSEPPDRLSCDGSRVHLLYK
T1 sequence (O88871 41-940 partner): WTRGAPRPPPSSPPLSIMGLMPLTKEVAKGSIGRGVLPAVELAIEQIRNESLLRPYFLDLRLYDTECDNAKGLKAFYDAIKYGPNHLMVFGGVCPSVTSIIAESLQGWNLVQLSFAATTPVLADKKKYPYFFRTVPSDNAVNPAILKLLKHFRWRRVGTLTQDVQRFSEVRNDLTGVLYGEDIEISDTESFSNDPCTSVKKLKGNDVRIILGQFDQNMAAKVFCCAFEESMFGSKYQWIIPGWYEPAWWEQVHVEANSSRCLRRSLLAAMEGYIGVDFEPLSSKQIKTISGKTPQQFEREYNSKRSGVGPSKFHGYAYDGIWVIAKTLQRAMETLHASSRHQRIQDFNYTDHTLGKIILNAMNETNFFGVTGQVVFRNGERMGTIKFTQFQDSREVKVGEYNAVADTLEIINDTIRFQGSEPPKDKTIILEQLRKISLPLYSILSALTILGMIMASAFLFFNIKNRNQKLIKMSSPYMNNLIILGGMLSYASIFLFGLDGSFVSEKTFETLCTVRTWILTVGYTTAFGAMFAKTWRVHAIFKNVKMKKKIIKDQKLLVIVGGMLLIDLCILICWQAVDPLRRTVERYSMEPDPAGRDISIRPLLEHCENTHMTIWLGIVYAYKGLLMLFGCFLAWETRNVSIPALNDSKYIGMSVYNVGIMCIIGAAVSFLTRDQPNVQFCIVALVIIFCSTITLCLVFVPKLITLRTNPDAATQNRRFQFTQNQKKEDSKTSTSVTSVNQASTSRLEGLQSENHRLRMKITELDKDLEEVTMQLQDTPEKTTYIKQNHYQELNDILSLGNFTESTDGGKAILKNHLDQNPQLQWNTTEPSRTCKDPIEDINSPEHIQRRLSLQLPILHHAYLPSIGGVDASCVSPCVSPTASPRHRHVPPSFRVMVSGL

For `CN(C)CCC[C@@]1(c2ccc(F)cc2)OCc2cc(C#N)ccc21` [escitalopram], the pKi (sigma 1 receptors) is listed as about 7.00, the “trials to criterion vs vehicle/vehicle or PCP/vehicle, EDR discrimination” value (Long-Evans rats [1]; acute 0.5 mg/kg 1 h s.c.) is listed as “did not differ” and the “trials to criterion vs PCP/vehicle, ED discrimination” value (shortened to “trials to criterion vs PCP/vehicle”) (Long-Evans rats [1]; acute 0.5 mg/kg 1 h s.c., p < 0.001) is listed as “significant reductions”.

In the case of `Fc1ccc([C@@H]2CCNC[C@H]2COc2ccc3c(c2)OCO3)cc1` [paroxetine], the “effect on deficits in OR performance” value (mice) is given as “but not paroxetine reversed deficits” and the “effect on subPCP-induced impairments in OR performance” value (mice; single supra-pharmacological dose 10 mg/kg) is given as “improved”.

In the case of `NC(=O)C[S+]([O-])C(c1ccccc1)c1ccccc1` (centres unmarked) [modafinil, Modafinil], the “reversal of subPCP-induced impairment, ED discrimination (trials to criterion)” value (Long-Evans rats [1]; [5]) was “significantly reversed”, the “reversal of subPCP-induced impairment, EDR discrimination (trials to criterion)” value (Long-Evans rats [1]; [5]) was “neither acute vortioxetine nor modafinil significantly reversed” and the “trials to criterion vs PCP/vehicle” value (Long-Evans rats [1]; ondansetron/escitalopram study, 64 mg/kg 30 min p.o., p < 0.001) was “significant reductions”. For the same compound, the “trials to criterion vs vehicle/vehicle or PCP/vehicle, EDR discrimination” value (Long-Evans rats [1]; ondansetron/escitalopram study, 64 mg/kg 30 min p.o., p < 0.05) was “significantly fewer trials”, the “AST performance in subPCP-treated rats, ED” value (Long-Evans rats [1]; [6]) was “significantly improved performance” and the “AST performance in subPCP-treated rats, EDR” value (Long-Evans rats [1]; [6]) was “significantly improved performance”.

For `Cc1nccn1CC1CCc2c(c3ccccc3n2C)C1=O` (centres unmarked) [ondansetron], the “trials to criterion vs vehicle/vehicle or PCP/vehicle, EDR discrimination” value (Long-Evans rats [1]; acute 1.6 mg/kg 1 h s.c.) was “did not differ” and the “trials to criterion vs PCP/vehicle” value (Long-Evans rats [1]; acute 1.6 mg/kg 1 h s.c., p < 0.05) was “significant reductions”.

In the case of `COCCCC/C(=N\OCCN)c1ccc(C(F)(F)F)cc1` [fluvoxamine], the “effect on deficits in OR performance” value (mice) is given as “reversed deficits”, the “effect on subPCP-induced impairments in OR performance” value (mice; single supra-pharmacological dose 20 mg/kg) is given as “improved” and the “SERT occupancy ED80” value (SERT) is given as “≈ 1.8 mg/kg”.

For `NCc1cc(=O)[nH]o1` [[^3H]muscimol], the “GABAA receptors pKD ([3H]muscimol)” value (GABAA receptor [2]; treatment group PCP/Veh) was 7.8 ± 0.03, the “GABAA receptors pKD ([3H]muscimol)” value (GABAA receptor [2]; treatment group PCP/Vor) was 7.6 ± 0.03^a,b,c and the “GABAA receptors pKD ([3H]muscimol)” value (GABAA receptor [2]; treatment group Veh/Veh) was 7.7 ± 0.03. For the same compound, the “GABAA receptors pKD ([3H]muscimol)” value (GABAA receptor [2]; treatment group Veh/Vor) was 7.8 ± 0.06.

In the case of `FC(F)c1ncn2c1Cn1ncnc1-c1cc(Br)ccc1-2` [RO4938581], the “attenuation of subPCP-induced impairment, ED discrimination of the AST” value (Long-Evans rats [3]) is given as “significantly attenuated” and the “attenuation of subPCP-induced impairment, EDR discrimination of the AST” value (Long-Evans rats [3]) is given as “significantly attenuated”.

In the case of `C[C@]12N[C@H](Cc3ccccc31)c1ccccc12` [MK-801], the “GABAA receptor binding ([3H]-muscimol, [3H]-flunitrazepam)” value (GABAA receptor [4]) is listed as “significant increase”.

In the case of `C[C@H](NC[C@H](O)CP(=O)(O)CC1CCCCC1)c1ccc(Cl)c(Cl)c1` [[^3H]CGP54626], the “GABAB receptors Bmax” value (GABAB receptor; treatment group PCP/Veh) was 414 ± 33^a fmol/mg, the “GABAB receptors Bmax” value (GABAB receptor; treatment group PCP/Vor) was 342 ± 27^a,c fmol/mg and the “GABAB receptors Bmax” value (GABAB receptor; treatment group Veh/Veh) was 541 ± 38 fmol/mg. The “GABAB receptors Bmax” value (GABAB receptor; treatment group Veh/Vor) was 475 ± 34 fmol/mg, the “GABAB receptors pKD ([3H]CGP54626)” value (GABAB receptor; treatment group PCP/Veh) was 8.7 ± 0.08 and the “GABAB receptors pKD ([3H]CGP54626)” value (GABAB receptor; treatment group PCP/Vor) was 8.7 ± 0.06. For the same compound, the “GABAB receptors pKD ([3H]CGP54626)” value (GABAB receptor; treatment group Veh/Veh) was 8.6 ± 0.04 and the “GABAB receptors pKD ([3H]CGP54626)” value (GABAB receptor; treatment group Veh/Vor) was 8.6 ± 0.08.

In the case of `CCCN(CCC)CCc1ccc(OC)c(OCCc2ccccc2)c1` [NE-100], the “effect on fluvoxamine's reversal of OR deficits” value (mice; sigma1 receptor antagonist given with fluvoxamine) is listed as “blocked this effect”.
